From patent US11512090B2, “Muscarinic acetylcholine M1 receptor antagonists” (PIPELINE THERAPEUTICS, INC., priority 2018, dated 2022)
Read-outs that look alike come from different tables or passages of the source.

Experiments:
Assay type in all cases: cell-based
human M1 receptor = target: T1, human M1 receptor (Homo sapiens, UniProt P11229); experiment: In vitro functional assay of muscarinic acetylcholine receptor activity (aequorin calcium flux, antagonist mode vs EC80 acetylcholine), M1
T1 sequence (P11229 1-460): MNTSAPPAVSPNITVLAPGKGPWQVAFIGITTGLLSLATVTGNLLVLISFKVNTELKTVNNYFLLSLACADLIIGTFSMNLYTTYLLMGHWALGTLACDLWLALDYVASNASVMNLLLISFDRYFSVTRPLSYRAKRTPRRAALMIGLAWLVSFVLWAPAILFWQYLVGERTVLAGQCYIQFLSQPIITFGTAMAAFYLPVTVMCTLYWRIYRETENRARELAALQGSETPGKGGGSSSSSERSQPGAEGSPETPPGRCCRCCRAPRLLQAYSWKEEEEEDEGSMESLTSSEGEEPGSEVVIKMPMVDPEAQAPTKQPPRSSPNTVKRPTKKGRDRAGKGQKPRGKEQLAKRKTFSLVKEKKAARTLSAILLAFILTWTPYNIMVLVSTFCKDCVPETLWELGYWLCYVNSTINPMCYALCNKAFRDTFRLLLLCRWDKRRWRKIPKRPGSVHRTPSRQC
Experimental: (§1) CHO-K1 cells stably expressing human M1 receptor with Aequorin (Perkin Elmer) were grown in F12 media, 10% FBS with 0.4 mg/mL geneticin and […]. Cells were grown to confluence and frozen down to be assayed at a later date. On the day of the experiment cells were thawed in a 37° C. water bath, resuspended in DMEM/HAM's F12 with HEPES (Invitrogen)+0.1% protease-free BSA (assay buffer), and spun down to remove freezing media. After centrifugation, supernatant was removed and 12 mL of assay buffer was added. Coelenterazine h (Promega) was added to the cells at a final concentration of 5 uM and incubated for 4 hours at room temperature in the dark. Compound master plate-96 deep well (Corning) were formatted in a 8-point DRC in assay buffer with 0.2% DMSO at a starting concentration of 60 uM (2×). After 4 hours of incubation, cells were plated at a concentration of 5×10^5 cells/well in 96 well white-walled, tissue culture-treated, clear-bottom plates (VWR). Compounds were added to the daughter plate, and cells plus compound were incubated at room temperature for 30 minutes in the dark.
(§2) Calcium flux was measured using the FlexStation 3 (Molecular Devices). To measure the antagonist dose-response, the EC80 of Acetylcholine was injected to the daughter plate using the automated compound transfer function of the Flex Station, and the increase in luminescence was measured over time. Antagonist activity was analyzed as a concentration dependent decrease in the EC80 acetylcholine response. Dose response curves were generated using Prism (GraphPad Software). The IC50 of the compounds was calculated from the dose response curve.

M2 = target: T2, M2 (Homo sapiens, UniProt P08172); experiment: In vitro functional assay of muscarinic acetylcholine receptor activity, M2; settings: antagonist IC50 at M2; read-out: M2 IC50
T2 sequence (P08172 1-466): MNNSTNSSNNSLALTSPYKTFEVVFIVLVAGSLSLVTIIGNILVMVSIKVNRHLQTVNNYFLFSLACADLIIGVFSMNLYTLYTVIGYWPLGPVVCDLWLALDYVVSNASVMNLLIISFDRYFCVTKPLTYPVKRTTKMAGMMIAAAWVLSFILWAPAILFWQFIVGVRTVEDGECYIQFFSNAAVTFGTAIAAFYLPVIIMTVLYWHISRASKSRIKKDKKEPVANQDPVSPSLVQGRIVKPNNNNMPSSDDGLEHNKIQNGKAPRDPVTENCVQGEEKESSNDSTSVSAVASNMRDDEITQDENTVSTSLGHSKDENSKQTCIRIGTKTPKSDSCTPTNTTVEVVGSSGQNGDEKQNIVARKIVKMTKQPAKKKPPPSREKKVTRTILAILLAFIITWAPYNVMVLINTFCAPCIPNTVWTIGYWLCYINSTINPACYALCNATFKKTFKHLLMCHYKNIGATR
Experimental: [The procedure below names another target; the source lists this target under the same test.] as §1, §2

M3 = M3 (Homo sapiens, UniProt P20309); experiment: In vitro functional assay of muscarinic acetylcholine receptor activity, M3; settings: antagonist IC50 at M3; read-out: M3 IC50
Experimental: [The procedure below names another target; the source lists this target under the same test.] as §1, §2

[1] = CHO-K1 cells stably expressing human M1 receptor with Aequorin, decrease in EC80 acetylcholine response, read-out: M1 IC50

Sequence of M3 (P20309 whole entry): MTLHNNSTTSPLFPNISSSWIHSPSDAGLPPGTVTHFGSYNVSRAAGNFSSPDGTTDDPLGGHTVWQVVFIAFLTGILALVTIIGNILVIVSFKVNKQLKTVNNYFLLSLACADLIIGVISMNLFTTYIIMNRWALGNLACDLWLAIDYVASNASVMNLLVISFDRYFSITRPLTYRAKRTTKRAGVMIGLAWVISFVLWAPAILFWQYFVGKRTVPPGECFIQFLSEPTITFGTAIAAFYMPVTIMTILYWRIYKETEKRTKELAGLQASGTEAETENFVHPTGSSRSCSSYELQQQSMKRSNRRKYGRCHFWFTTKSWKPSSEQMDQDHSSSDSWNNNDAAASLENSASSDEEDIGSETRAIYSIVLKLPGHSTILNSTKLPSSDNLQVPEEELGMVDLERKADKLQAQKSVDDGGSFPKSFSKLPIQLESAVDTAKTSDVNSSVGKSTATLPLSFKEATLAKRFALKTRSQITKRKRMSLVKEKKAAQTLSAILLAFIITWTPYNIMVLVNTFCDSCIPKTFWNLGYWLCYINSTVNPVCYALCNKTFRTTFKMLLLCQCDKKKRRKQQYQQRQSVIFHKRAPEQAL

| IC50 (M2) [nM] | IC50 (M3) [nM] | Structure (SMILES) | IC50 (human M1 receptor; [1]) [nM] | IC50 (human M1 receptor) [nM] |
| --- | --- | --- | --- | --- |
| 1000 to 10000 | > 10000 | Cc1cc(F)cnc1N1C[C@H]2C[C@@H]1CN2C(=O)CCCc1cccc2ncccc12 (racemic) [Example 53, rac-1-((1R,4R)-5-(5-fluoro-3-methylpyridin-2-yl)-2,5-diazabicyclo[2.2.1]heptan-2-yl)-4-(quinolin-5-yl)butan-1-one] | 1000 to 10000 | – |
| 1000 to 10000 | > 10000 | O=C(CCCc1cccc2ncccc12)N1C[C@H]2C[C@@H]1CN2c1ccc(F)cn1 (racemic) [Example 54, rac-1-((1R,4R)-5-(5-fluoropyridin-2-yl)-2,5-diazabicyclo[2.2.1]heptan-2-yl)-4-(quinolin-5-yl)butan-1-one] | 100 to 1000 | – |
| 1000 to 10000 | 1000 to 10000 | Cc1cc(F)cnc1N1CCN(C(=O)CCCc2cccc3ncccc23)[C@@H](C)C1 [Example 6, 1-[(2S)-4-(5-fluoro-3-methylpyridin-2-yl)-2-methylpiperazin-1-yl]-4-(quinolin-5-yl)butan-1-one] | – | – |
| 1000 to 10000 | 1000 to 10000 | Cc1cc(F)cnc1N1CCN(C(=O)CCCc2cccc3nc(N)sc23)[C@@H](C)C1 [Example 20, 4-(2-amino-1,3-benzothiazol-7-yl)-1-[(2S)-4-(5-fluoro-3-methylpyridin-2-yl)-2-methylpiperazin-1-yl]butan-1-one] | – | – |
| – | – | N#Cc1ccc(N2C3CCC2CN(C(=O)CCNCc2c(F)ccc4ncnn24)C3)nc1 [Example 41, 6-(3-{3-[({6-fluoro-[1,2,4]triazolo[1,5-a]pyridin-5-yl}methyl)amino]propanoyl}-3,8-diazabicyclo[3.2.1]octan-8-yl)pyridine-3-carbonitrile] | – | < 100 |
| 1000 to 10000 | > 10000 | O=C(CCCc1cccc2ncccc12)N1CCN(c2ccc(F)cn2)CC1 [Example 51, 1-(4-(5-fluoropyridin-2-yl)piperazin-1-yl)-4-(quinolin-5-yl)butan-1-one] | – | – |
| 1000 to 10000 | 1000 to 10000 | CC1CN(c2ccc(F)cn2)CCN1C(=O)CCCc1cccc2ncccc12 (centres unmarked) [Example 58, 1-(4-(5-fluoropyridin-2-yl)-2-methylpiperazin-1-yl)-4-(quinolin-5-yl)butan-1-one] | – | – |
| < 100 | 100 to 1000 | Cc1cc(F)cnc1N1CCN(C(=O)CCCc2cccc3ncccc23)C(C)C1 (centres unmarked) [Example 59, 1-(4-(5-fluoro-3-methylpyridin-2-yl)-2-methylpiperazin-1-yl)-4-(quinolin-5-yl)butan-1-one] | – | – |
| 1000 to 10000 | 1000 to 10000 | CC1CN(C(=O)CCCc2cccc3ncccc23)CCN1c1ccc(F)cn1 (centres unmarked) [Example 61, 1-(4-(5-fluoropyridin-2-yl)-3-methylpiperazin-1-yl)-4-(quinolin-5-yl)butan-1-one] | – | – |
| 100 to 1000 | 1000 to 10000 | Cc1cc(F)cnc1N1CCN(C(=O)CCCc2cccc3ncccc23)CC1C (centres unmarked) [Example 62, 1-(4-(5-fluoro-3-methylpyridin-2-yl)-3-methylpiperazin-1-yl)-4-(quinolin-5-yl)butan-1-one] | – | – |
| 100 to 1000 | 100 to 1000 | Cc1cc(F)cnc1N1CCN(C(=O)CCCc2cccc3ncccc23)[C@H](C)C1 [Example 66, (R)-1-(4-(5-fluoro-3-methylpyridin-2-yl)-2-methylpiperazin-1-yl)-4-(quinolin-5-yl)butan-1-one] | – | – |
| 1000 to 10000 | 1000 to 10000 | C[C@@H]1CN(c2ncc(F)cc2Cl)CCN1C(=O)CCCc1cccc2ncccc12 [Example 80, (R)-1-(4-(3-chloro-5-fluoropyridin-2-yl)-2-methylpiperazin-1-yl)-4-(quinolin-5-yl)butan-1-one] | – | – |
| 1000 to 10000 | 1000 to 10000 | Cc1cc(F)cnc1N1CCN(C(=O)CCCc2cccc3ncoc23)[C@@H](C)C1 [Example 83, (S)-4-(benzo[d]oxazol-7-yl)-1-(4-(5-fluoro-3-methylpyridin-2-yl)-2-methylpiperazin-1-yl)butan-1-one] | – | – |
| > 10000 | 1000 to 10000 | N#Cc1cc(N2CCN(C(=O)CCS(=O)(=O)c3cccc4ncsc34)CC2)ccn1 [Example 100, 4-(4-(3-(benzo[d]thiazol-7-ylsulfonyl)propanoyl)piperazin-1-yl)picolinonitrile] | – | – |
| – | > 10000 | O=C(CCNCc1cccc2ncsc12)N1CCN(c2ccc(C(F)(F)F)cn2)CC1 [Example 119, 3-{[(1,3-benzothiazol-7-yl)methyl)amino}-1-{4-[5-(trifluoromethyl)pyridin-2-yl]piperazin-1-yl}propan-1-one] | 1000 to 10000 | – |
| 1000 to 10000 | 1000 to 10000 | CC1CN(C(=O)CCS(=O)(=O)c2cccc3ncsc23)CC(C)N1c1ccc(C#N)cn1 (centres unmarked) [Example 128, 6-{4-[3-(1,3-benzothiazole-7-sulfonyl)propanoyl]-2,6-dimethylpiperazin-1-yl}pyridine-3-carbonitrile] | – | – |
| > 10000 | > 10000 | CC1CN(c2ccc(C#N)cn2)CC(C)N1C(=O)CCS(=O)(=O)c1cccc2ncsc12 (centres unmarked) [Example 134, 6-{4-[3-(1,3-benzothiazole-7-sulfonyl)propanoyl]-3,5-dimethylpiperazin-1-yl}pyridine-3-carbonitrile] | – | – |
| – | – | Cc1ccc(N2C3CCC2CN(C(=O)CCOCc2cccn4ncnc24)C3)nn1 [Example 189, 1-[8-(6-methylpyridazin-3-yl)-3,8-diazabicyclo[3.2.1]octan-3-yl]-3-({[1,2,4]triazolo[1,5-a]pyridin-8-yl}methoxy)propan-1-one] | – | 100 to 1000 |
| – | – | O=Cc1ccc(N2C3CCC2CN(C(=O)CCOCc2cccn4ncnc24)C3)nc1 [Example 190, 6-{3-[3-({[1,2,4]triazolo[1,5-a]pyridin-8-yl}methoxy)propanoyl]-3,8-diazabicyclo[3.2.1]octan-8-yl}pyridine-3-carbaldehyde] | – | < 100 |
| – | – | N#Cc1ccc(N2C3CCC2CN(C(=O)CCN(Cc2cccc4ncnn24)C2CCC2)C3)nc1 [Example 191, 6-(3-{3-[cyclobutyl({[1,2,4]triazolo[1,5-a]pyridin-5-yl}methyl)amino]propanoyl}-3,8-diazabicyclo[3.2.1]octan-8-yl)pyridine-3-carbonitrile] | 1000 to 10000 | – |
| – | – | O=C([C@H]1C[C@H](Nc2cccc3ncccc23)C1)N1CC2CCC(C1)N2c1ccncc1 [Example 196, N-[(1r,3r)-3-[8-(pyridin-4-yl)-3,8-diazabicyclo[3.2.1]octane-3-carbonyl]cyclobutyl]quinolin-5-amine] | 1000 to 10000 | – |
| – | – | N#Cc1ccc(N2C3CCC2CN(C(=O)CCCc2cccn4ncnc24)C3)nc1 [Example 198, 6-[3-(4-{[1,2,4]triazolo[1,5-a]pyridin-8-yl}butanoyl)-3,8-diazabicyclo[3.2.1]octan-8-yl]pyridine-3-carbonitrile] | – | < 100 |
| – | – | N#Cc1ccc(N2C3CCC2CN(C(=O)CCCc2cccc4ncnn24)C3)nc1 [Example 199, 6-[3-(4-{[1,2,4]triazolo[1,5-a]pyridin-5-yl}butanoyl)-3,8-diazabicyclo[3.2.1]octan-8-yl]pyridine-3-carbonitrile] | – | < 100 |

| Structure (SMILES) | IC50 (M2) [nM] | IC50 (M3) [nM] | IC50 (human M1 receptor; [1]) [nM] | IC50 (human M1 receptor) [nM] |
| --- | --- | --- | --- | --- |
| O=C(COCc1cccc2ncccc12)N1C[C@H]2CC[C@@H](C1)N2c1ccc(F)cn1 [Example 1, 1-((1R,5S)-8-(5-fluoropyridin-2-yl)-3,8-diazabicyclo[3.2.1]octan-3-yl)-2-(quinolin-5-ylmethoxy)ethan-1-one] | 1000 to 10000 | > 10000 | – | < 100 |
| O=C(CC1CN(c2cccc3ncccc23)C1)N1C[C@H]2CC[C@@H](C1)N2c1ccc(F)cn1 [Example 2, 1-((1R,5S)-8-(5-fluoropyridin-2-yl)-3,8-diazabicyclo[3.2.1]octan-3-yl)-2-(1-(quinolin-5-yl)azetidin-3-yl)ethan-1-one] | 1000 to 10000 | > 10000 | 1000 to 10000 | – |
